Measurements: patent publication US20250154127A1, “BICYCLIC HETEROARYL COMPOUNDS AND USES THEREOF” (ETERN BIOPHARMA (SHANGHAI) CO., LTD., priority 2022, published 2025)
One block for each compound: values may come before it.

Key:
[1] = target: TEAD1(210-426) binding to YAP(50-100) (Homo sapiens, UniProt P28347); test: TR-FRET Assay for TEAD1(210-426) Binding to YAP(50-100); conditions: His-TEAD 10 nM, YAP-Biotin peptide 50 nM
Method in brief: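 10 nM His-TEAD1 preincubated 30 min at room temperature with compound (3-fold dilutions, 12 points, 1% DMSO), then 50 nM biotin-YAP peptide added.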

MSTO-211H cells = test: Proliferation Assay (CellTiter-Glo Luminescent Cell Viability Assay); assay type: cell-based; conditions: Homo sapiens, 96 hours treatment
Method in brief: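 MSTO-211H cells, 1,500/well in RPMI 1640 with 10% FBS, plated overnight, then treated 96 h with 9-point 3-fold compound series in duplicate (DMSO below 0.5%). Viability by CellTiter-Glo luminescence; inhibition relative to DMSO wells, IC50 by four-parameter fit.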

Sequence of TEAD1(210-426) binding to YAP(50-100) (P28347 209-426): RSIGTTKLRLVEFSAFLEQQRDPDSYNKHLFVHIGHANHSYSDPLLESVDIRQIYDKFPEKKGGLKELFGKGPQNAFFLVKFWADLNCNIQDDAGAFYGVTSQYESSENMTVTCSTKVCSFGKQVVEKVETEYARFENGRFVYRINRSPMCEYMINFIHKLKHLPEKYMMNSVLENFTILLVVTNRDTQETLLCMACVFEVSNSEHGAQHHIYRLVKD

Structure (SMILES): CN(CCO)c1nccc(Cn2ccc(-n3nc(-c4ccc(C(F)(F)F)cc4)c4nccnc43)cc2=O)n1 [Compound 52, 1-((2-((2-hydroxyethyl)(methyl)amino)pyrimidin-4-yl)methyl)-4-(3-(4-(trifluoromethyl)phenyl)-1H-pyrazolo[3,4-b]pyrazin-1-yl)pyridin-2(1H)-one]
IC50 [1]: ≤ 100 nM
IC50 (MSTO-211H cells): ≤ 1000 nM

Structure (SMILES): COCCNc1nccc(Cn2ccc(-c3nn(-c4ccc(OC(F)(F)F)cc4)c4c(F)cccc34)cc2=O)n1 [Compound 150, 4-(7-fluoro-1-(4-(trifluoromethoxy)phenyl)-1H-indazol-3-yl)-1-((2-((2-methoxyethyl)amino)pyrimidin-4-yl)methyl)pyridin-2(1H)-one]
IC50 [1]: ≤ 100 nM
IC50 (MSTO-211H cells): ≤ 1000 nM

Structure (SMILES): O=c1cc(-n2nc(-c3ccc(C(F)(F)F)cc3)c3ncccc32)ccn1Cc1cccnc1 [Compound 120, 1-(pyridin-3-ylmethyl)-4-(3-(4-(trifluoromethyl)phenyl)-1H-pyrazolo[4,3-b]pyridin-1-yl)pyridin-2(1H)-one]
IC50 [1]: ≤ 100 nM
IC50 (MSTO-211H cells): ≤ 1000 nM

Structure (SMILES): C[C@@H](c1ccccn1)n1ccc(-c2nn(-c3ccc(C(F)(F)F)cc3)c3cc(C(N)=O)ccc23)cc1=O [Compound 30, (S)-3-(2-oxo-1-(1-(pyridin-2-yl)ethyl)-1,2-dihydropyridin-4-yl)-1-(4-(trifluoromethyl)phenyl)-1H-indazole-6-carboxamide]
IC50 [1]: > 1000 nM
IC50 (MSTO-211H cells): ≤ 1000 nM

Structure (SMILES): C[C@@H](c1ccccn1)n1ccc(-c2nn(-c3ccc(C(F)(F)F)cc3)c3ccccc23)cc1=O [Compound 11, (S)-1-(1-(pyridin-2-yl)ethyl)-4-(1-(4-(trifluoromethyl)phenyl)-1H-indazol-3-yl)pyridin-2(1H)-one]
IC50 [1]: ≤ 100 nM
IC50 (MSTO-211H cells): ≤ 1000 nM

Structure (SMILES): CNc1ccnc(Cn2ccc(-c3nn(-c4ccc(C(F)(F)F)cc4)c4ccc(F)cc34)cc2=O)n1 [Compound 54, 4-(5-fluoro-1-(4-(trifluoromethyl)phenyl)-1H-indazol-3-yl)-1-((4-(methylamino)pyrimidin-2-yl)methyl)pyridin-2(1H)-one]
IC50 [1]: ≤ 100 nM
IC50 (MSTO-211H cells): ≤ 1000 nM

Structure (SMILES): CNc1nccc(Cn2ccc(-c3nn(-c4ccc(C(F)(F)F)cc4)c4c(OC)cccc34)cc2=O)n1 [Compound 142, 4-(7-methoxy-1-(4-(trifluoromethyl)phenyl)-1H-indazol-3-yl)-1-((2-(methylamino)pyrimidin-4-yl)methyl)pyridin-2(1H)-one]
IC50 [1]: 100 to 1000 nM
IC50 (MSTO-211H cells): ≤ 1000 nM

Structure (SMILES): COc1ccnc(Cn2ccc(-c3nn(-c4ccc(C(F)(F)F)cc4)c4ccccc34)cc2=O)n1 [Compound 68, 1-((4-methoxypyrimidin-2-yl)methyl)-4-(1-(4-(trifluoromethyl)phenyl)-1H-indazol-3-yl)pyridin-2(1H)-one]
IC50 [1]: ≤ 100 nM
IC50 (MSTO-211H cells): ≤ 1000 nM

Structure (SMILES): CNc1ccnc(Cn2ccc(-n3nc(-c4ccc(C(F)(F)F)cc4)c4nccnc43)cc2=O)n1 [Compound 49, 1-((4-(methylamino)pyrimidin-2-yl)methyl)-4-(3-(4-(trifluoromethyl)phenyl)-1H-pyrazolo[3,4-b]pyrazin-1-yl)pyridin-2(1H)-one]
IC50 [1]: ≤ 100 nM
IC50 (MSTO-211H cells): ≤ 1000 nM

Structure (SMILES): C[C@@H](c1ccccn1)n1ccc(-c2nn(-c3ccc(C(F)(F)F)cc3)c3ccc(F)cc23)cc1=O [Compound 33, (S)-4-(5-fluoro-1-(4-(trifluoromethyl)phenyl)-1H-indazol-3-yl)-1-(1-(pyridin-2-yl)ethyl)pyridin-2(1H)-one]
IC50 [1]: ≤ 100 nM
IC50 (MSTO-211H cells): ≤ 1000 nM

Structure (SMILES): Nc1ccnc(Cn2ccc(-n3nc(-c4ccc(C(F)(F)F)cc4)c4ncccc43)cc2=O)n1 [Compound 119, 1-((4-aminopyrimidin-2-yl)methyl)-4-(3-(4-(trifluoromethyl)phenyl)-1H-pyrazolo[4,3-b]pyridin-1-yl)pyridin-2(1H)-one]
IC50 [1]: ≤ 100 nM
IC50 (MSTO-211H cells): ≤ 1000 nM

Structure (SMILES): O=c1cc(-c2nn(-c3ccc(C(F)(F)F)cc3)c3ncccc23)ccn1Cc1ccnc(NC2CC2)n1 [Compound 44, 1-((2-(cyclopropylamino)pyrimidin-4-yl)methyl)-4-(1-(4-(trifluoromethyl)phenyl)-1H-pyrazolo[3,4-b]pyridin-3-yl)pyridin-2(1H)-one]
IC50 [1]: ≤ 100 nM
IC50 (MSTO-211H cells): ≤ 1000 nM

Structure (SMILES): O=c1cc(-c2nn(-c3ccc(C(F)(F)F)cc3)c3ccccc23)ccn1Cc1nccc(N2CC(O)C2)n1 [Compound 85, 1-((4-(3-hydroxyazetidin-1-yl)pyrimidin-2-yl)methyl)-4-(1-(4-(trifluoromethyl)phenyl)-1H-indazol-3-yl)pyridin-2(1H)-one]
IC50 [1]: ≤ 100 nM
IC50 (MSTO-211H cells): ≤ 1000 nM

Structure (SMILES): O=c1cc(-c2nn(-c3ccc(C(F)(F)F)cc3)c3ncccc23)ccn1Cc1ncccn1 [Compound 115, 1-(pyrimidin-2-ylmethyl)-4-(1-(4-(trifluoromethyl)phenyl)-1H-pyrazolo[3,4-b]pyridin-3-yl)pyridin-2(1H)-one]
IC50 [1]: ≤ 100 nM
IC50 (MSTO-211H cells): ≤ 1000 nM

Second part, led by results:

IC50 [1]: ≤ 100 nM
Structure (SMILES): C[C@@H](c1ccccn1)n1ccc(-c2nn(-c3ccc(C(F)(F)F)cc3)c3cccnc23)cc1=O [Compound 2, (S)-1-(1-(pyridin-2-yl)ethyl)-4-(1-(4-(trifluoromethyl)phenyl)-1H-pyrazolo[4,3-b]pyridin-3-yl)pyridin-2(1H)-one]
IC50 (MSTO-211H cells): ≤ 1000 nM

IC50 [1]: ≤ 100 nM
Structure (SMILES): O=c1cc(-c2nn(-c3ccc(C(F)(F)F)cc3)c3ncccc23)ccn1Cc1ccnc(OCCO)n1 [Compound 126, 1-((2-(2-hydroxyethoxy)pyrimidin-4-yl)methyl)-4-(1-(4-(trifluoromethyl)phenyl)-1H-pyrazolo[3,4-b]pyridin-3-yl)pyridin-2(1H)-one]
IC50 (MSTO-211H cells): ≤ 1000 nM

IC50 [1]: ≤ 100 nM
Structure (SMILES): CNc1ccnc(Cn2ccc(-n3nc(-c4ccc(C(F)(F)F)cc4)c4ncccc43)cc2=O)n1 [Compound 48, 1-((4-(methylamino)pyrimidin-2-yl)methyl)-4-(3-(4-(trifluoromethyl)phenyl)-1H-pyrazolo[4,3-b]pyridin-1-yl)pyridin-2(1H)-one]
IC50 (MSTO-211H cells): ≤ 1000 nM

IC50 [1]: ≤ 100 nM
Structure (SMILES): Nc1nccc(Cn2ccc(-n3nc(-c4ccc(C(F)(F)F)cc4)c4ncccc43)cc2=O)n1 [Compound 118, 1-((2-aminopyrimidin-4-yl)methyl)-4-(3-(4-(trifluoromethyl)phenyl)-1H-pyrazolo[4,3-b]pyridin-1-yl)pyridin-2(1H)-one]
IC50 (MSTO-211H cells): ≤ 1000 nM

IC50 [1]: ≤ 100 nM
Structure (SMILES): Nc1cncc(Cn2ccc(-c3nn(-c4ccc(C(F)(F)F)cc4)c4ccccc34)cc2=O)n1 [Compound 65, 1-((6-aminopyrazin-2-yl)methyl)-4-(1-(4-(trifluoromethyl)phenyl)-1H-indazol-3-yl)pyridin-2(1H)-one]
IC50 (MSTO-211H cells): ≤ 1000 nM

IC50 [1]: ≤ 100 nM
Structure (SMILES): O=c1cc(-c2nn(-c3ccc(C(F)(F)F)cc3)c3ncccc23)ccn1Cc1ccnc(NCCO)n1 [Compound 73, 1-((2-((2-hydroxyethyl)amino)pyrimidin-4-yl)methyl)-4-(1-(4-(trifluoromethyl)phenyl)-1H-pyrazolo[3,4-b]pyridin-3-yl)pyridin-2(1H)-one]
IC50 (MSTO-211H cells): ≤ 1000 nM

IC50 [1]: 100 to 1000 nM
Structure (SMILES): CNc1nccc(Cn2ccc(-c3nn(-c4ccc(C(F)(F)F)cc4)c4c(C)cccc34)cc2=O)n1 [Compound 143, 4-(7-methyl-1-(4-(trifluoromethyl)phenyl)-1H-indazol-3-yl)-1-((2-(methylamino)pyrimidin-4-yl)methyl)pyridin-2(1H)-one]
IC50 (MSTO-211H cells): ≤ 1000 nM

IC50 [1]: ≤ 100 nM
Structure (SMILES): CNc1nccc(Cn2ccc(-c3nn(-c4ccc(C(F)(F)F)cc4)c4ccccc34)cc2=O)c1F [Compound 67, 1-((3-fluoro-2-(methylamino)pyridin-4-yl)methyl)-4-(1-(4-(trifluoromethyl)phenyl)-1H-indazol-3-yl)pyridin-2(1H)-one]
IC50 (MSTO-211H cells): ≤ 1000 nM

IC50 [1]: ≤ 100 nM
Structure (SMILES): O=c1cc(-c2nc(-c3ccc(C(F)(F)F)cc3)n3ccccc23)ccn1Cc1ccnc(OCCO)n1 [Compound 132, 1-((2-(2-hydroxyethoxy)pyrimidin-4-yl)methyl)-4-(3-(4-(trifluoromethyl)phenyl)imidazo[1,5-a]pyridin-1-yl)pyridin-2(1H)-one]
IC50 (MSTO-211H cells): ≤ 1000 nM

IC50 [1]: ≤ 100 nM
Structure (SMILES): O=c1cc(-c2nn(-c3ccc(C(F)(F)F)cc3)c3ccccc23)ccn1Cc1cccc(Cl)n1 [Compound 89, 1-((6-chloropyridin-2-yl)methyl)-4-(1-(4-(trifluoromethyl)phenyl)-1H-indazol-3-yl)pyridin-2(1H)-one]
IC50 (MSTO-211H cells): ≤ 1000 nM

IC50 [1]: ≤ 100 nM
Structure (SMILES): CN(CCO)c1ccnc(Cn2ccc(-c3nn(-c4ccc(C(F)(F)F)cc4)c4nccnc34)cc2=O)n1 [Compound 107, 1-((4-((2-hydroxyethyl)(methyl)amino)pyrimidin-2-yl)methyl)-4-(1-(4-(trifluoromethyl)phenyl)-1H-pyrazolo[3,4-b]pyrazin-3-yl)pyridin-2(1H)-one]
IC50 (MSTO-211H cells): ≤ 1000 nM

IC50 [1]: > 1000 nM
Structure (SMILES): C[C@@H](c1ccccn1)n1ccc(-c2nn(-c3ccc(C(F)(F)F)nc3)c3cccnc23)cc1=O [Compound 40, (S)-1-(1-(pyridin-2-yl)ethyl)-4-(1-(6-(trifluoromethyl)pyridin-3-yl)-1H-pyrazolo[4,3-b]pyridin-3-yl)pyridin-2(1H)-one]
IC50 (MSTO-211H cells): ≤ 1000 nM

IC50 [1]: ≤ 100 nM
Structure (SMILES): CNc1nccc([C@H](C)n2ccc(-c3nn(-c4ccc(C(F)(F)F)cc4)c4ncccc34)cc2=O)n1 [Compound 131, (S)-1-(1-(2-(methylamino)pyrimidin-4-yl)ethyl)-4-(1-(4-(trifluoromethyl)phenyl)-1H-pyrazolo[3,4-b]pyridin-3-yl)pyridin-2(1H)-one]
IC50 (MSTO-211H cells): ≤ 1000 nM

IC50 [1]: ≤ 100 nM
Structure (SMILES): O=c1cc(-c2nn(-c3ccc(C(F)(F)F)cc3)c3ccccc23)ccn1Cc1nccc(N2CC3(COC3)C2)n1 [Compound 87, 1-((4-(2-oxa-6-azaspiro[3.3]heptan-6-yl)pyrimidin-2-yl)methyl)-4-(1-(4-(trifluoromethyl)phenyl)-1H-indazol-3-yl)pyridin-2(1H)-one]
IC50 (MSTO-211H cells): ≤ 1000 nM
